In brackets after ≈: the same amount, converted by molar mass.
Experiments:
[1] = naloxone in serum of injected mice by LCMS; format: in vivo
Description: After 30 minutes the mice were sacrificed. Blood was harvested and allowed to coagulate. Serum was harvested. A small amount of naloxone-D5 was spiked in, 9 vol of MeOH were added, and cooled for 30 min. After centrifugation the supernatant from each sample was dried and submitted to LCMS. […] FIG. 7 is a graph showing the results of the experiment.
Another experiment was conducted following the methodology of Example 1, except the mice were sacrificed at 2 hours instead of 30 minutes. FIG. 8 is a graph showing the results of the experiment.

[2] = tested on: 4-NHE (marker of ROS damage); assay: ROS changes in blood of mice, ELISA for 4-NHE; conditions: for effect on ROS levels: injected together with morphine
From the text: This was accomplished using an ELISA assay for 4-NHE that is a marker of ROS damage. See FIG. 9A for an illustration of the process. After a short period, serum was collected and quantification of 4-NHE against spiked blood standards was accomplished using an appropriate antibody.

[3] = tested on: opioid-induced respiratory failure and death; assay: rescue of mice from lethal dose of morphine (survival); format: in vivo
Description: Experiments were conducted to determine if NPD-2 can rescue a mouse from opioid-induced respiratory failure and death. Mice were administered a lethal dose of morphine by injection intraperitoneally (IP, 400 mg/kg). […] A survival percentage was calculated and graphed.

renarcotization = assay: simulated renarcotization, supplemental opioid dose after rescue; conditions: for survival (rescue rate) after initial opioid overdose: initial overdose 400 mg/kg
Description: Experiments were conducted to examine the effect of the prodrug of the present invention in a simulated renarcotization situation.

[4] = max solubility in 1×PBS, 20% PEG400; format: physicochemical; conditions: 1×PBS with 20% PEG400, aqueous with cosolvent or surfactant or cyclodextrin
[5] = in vivo; cited from earlier work
[6] = 2 mg/kg IP 15 min after morphine 400 mg/kg IP
[7] = 4 mg/kg IP 15 min after morphine 400 mg/kg IP
[8] = 7 mg/kg IP 15 min after morphine 400 mg/kg IP
[9] = 15 mg/kg IP 15 min after morphine 400 mg/kg IP
[10] = 6 mg/kg IP 15 min after morphine 400 mg/kg IP

## C=CCN1CCC23c4c5ccc(OCc6ccc(B(O)O)cc6)c4O[C@@H]2C(=O)CC[C@@]3(O)C1C5 (some centres unmarked) [PS-NPD-2]
[1]; inferred from 2 hour naloxone level in mice
  half-life: potentially longer half-life
[1]; mice, 30 minutes after injection, LCMS
  naloxone concentration in blood/serum: higher concentrations of naloxone
[1]; mice, 2 hours after injection, LCMS
  naloxone in blood compared to naloxone: more naloxone in mice blood compared to naloxone
[2]
  effect on ROS levels: reduces the ROS levels back to saline treated levels
[3]; [6]
  # dead: 8
  Survival percent: 0%
  Survival rate: 0
[3]; [7]
  # dead: 1
  Survival percent: 0%
  Survival rate: 0
[3]; [8]
  # dead: 4
  Survival percent: 0%
  Survival rate: 0
[3]; [9]
  # dead: 1
  Survival percent: 87.5%
  Survival rate: 0.875
renarcotization; 15 mg/kg
  survival (rescue rate) after initial opioid overdose: 80%
renarcotization; prodrug 15 mg/kg vs naloxone 6 mg/kg, supplemental opioid dose 25 mg/kg, N=8 each group
  number of surviving animals after supplemental opioid: higher number of surviving animals than naloxone
[4]
  solubility: ~50 mg/mL (≈ 108 mM)

## CN1CC[C@]23c4c5ccc(O)c4O[C@H]2[C@@H](O)C=C[C@H]3[C@H]1C5 [morphine, reference compound]
[2]; mouse serum, compound alone
  increase of ROS (4-NHE): more than 10 fold
[3]; morphine 400 mg/kg IP alone
  # dead: 2
  Survival percent: 0%
  Survival rate: 0

## C=CCN1CC[C@]23c4c5ccc(O)c4O[C@H]2C(=O)CC[C@@]3(O)[C@H]1C5 [naloxone, reference compound]
[2]
  effect on ROS levels: reduces the ROS levels back to saline treated levels
[3]; [10]
  # dead: 1
  Survival percent: 75%
  Survival rate: 0.75
[5]
  metabolic stability: metabolically instable
renarcotization; 6 mg/kg
  survival (rescue rate) after initial opioid overdose: 80%

Source: patent publication US12617807B2, “Long lasting opioid reversal using hydrogen peroxide-induced release in blood” (University of Cincinnati, priority 2021, dated 2026)
